Like-named read-outs stand apart in the source and are kept apart here.
Columns and labels:
[1] = molecular target: T1, interaction between glucokinase (GK) and glucokinase regulatory protein (GKRP) (Homo sapiens, UniProt Q14397); test: biochemical; type: binding
T1 sequence (Q14397 1-625): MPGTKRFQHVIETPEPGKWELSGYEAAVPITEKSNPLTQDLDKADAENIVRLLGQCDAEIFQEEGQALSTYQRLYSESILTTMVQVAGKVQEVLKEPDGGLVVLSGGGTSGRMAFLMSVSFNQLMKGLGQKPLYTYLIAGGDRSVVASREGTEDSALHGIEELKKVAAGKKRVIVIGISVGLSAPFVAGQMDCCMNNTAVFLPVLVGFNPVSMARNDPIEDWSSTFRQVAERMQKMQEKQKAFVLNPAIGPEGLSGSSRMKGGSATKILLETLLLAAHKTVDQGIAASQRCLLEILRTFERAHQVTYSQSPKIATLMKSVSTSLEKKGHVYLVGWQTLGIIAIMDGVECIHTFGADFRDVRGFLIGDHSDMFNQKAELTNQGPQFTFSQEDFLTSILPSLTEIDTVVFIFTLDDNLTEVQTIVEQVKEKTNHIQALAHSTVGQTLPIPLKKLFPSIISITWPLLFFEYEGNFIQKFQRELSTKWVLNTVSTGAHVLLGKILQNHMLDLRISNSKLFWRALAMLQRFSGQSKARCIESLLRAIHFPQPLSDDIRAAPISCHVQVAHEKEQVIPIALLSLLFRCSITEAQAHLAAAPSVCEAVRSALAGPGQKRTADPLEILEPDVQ
Procedure, shortened: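 Avi-tagged human GKRP preincubated with compound for 20 min at room temperature, then 6 nM GK-fluorescein (concentration of added solution) introduced and incubated 2 h in the dark. Buffer: 20 mM Tris pH 7.5, 0.05% BSA, 1 mM DTT, 1 μM sorbitol-6-phosphate. Plate read on a fluorescence reader.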

[2] = molecular target: T2, GKRP (Glucokinase Regulatory Protein) with human His-hepatic GK (Homo sapiens, UniProt Q14397); test: biochemical
T2 sequence (Q14397 1-625): T1 sequence (Q14397 1-625)
Procedure, shortened: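 Human His-tagged hepatic GK (30 nM in the 5× working stock) in 50 mM Tris pH 7.5, 4 mM MgCl2, 6% DMSO with DTT, BSA and Brij-35. Enzyme was added after a 30 min step and reacted 30 min at room temperature. The reaction was stopped with acetonitrile and 13C-glucose-6-phosphate formed from 13C-glucose was quantified by LC MS/MS.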

[3] = avi-tagged GKRP, GK-fluorescein, AlphaScreen beads, read-out: GK-GKRP IC50 (Binding)
[4] = 13C-glucose-6-phosphate formation, 280 nM GKRP (10×), 30 nM GK (5×), read-out: GK-GKRP EC50 (LC MS/MS-2)

| SMILES | IC50 [1, 3] [µM] | EC50 [2, 4] [µM] | IC50 ([1]; GK-GKRP IC50 (Binding)) [µM] | EC50 ([2]; GK-GKRP EC50 (LC MS/MS-2)) [µM] |
| --- | --- | --- | --- | --- |
| CC(C)CN(C[C@H]1CN(S(=O)(=O)c2cccs2)CCN1c1ccc(C(C)(O)C(F)(F)F)cc1)S(C)(=O)=O (mixture of isomers) [Example 201, N-(2-methylpropyl)-N-(((2S)-4-(2-thiophenylsulfonyl)-1-(4-(2,2,2-trifluoro-1-hydroxy-1-methylethyl)phenyl)-2-piperazinyl)methyl)methanesulfonamide] | 0.004 | 0.014 |  |  |
| C[C@H]1COCCN1C[C@H]1CN(S(=O)(=O)c2nccs2)CCN1c1ccc(C(C)(O)C(F)(F)F)cc1 (mixture of isomers) [Example 102, 1,1,1-trifluoro-2-(4-((2S)-2-(((3S)-3-methyl-4-morpholinyl)methyl)-4-(1,3-thiazol-2-ylsulfonyl)-1-piperazinyl)phenyl)-2-propanol] | 0.134 | 0.137 |  |  |
| CC(O)(c1ccc(N2CCN(S(=O)(=O)c3cccs3)C[C@@H]2COCc2ccco2)cc1)C(F)(F)F (mixture of isomers) [Example 116, 1,1,1-trifluoro-2-(4-((2R)-2-((2-furanylmethoxy)methyl)-4-(2-thiophenylsulfonyl)-1-piperazinyl)phenyl)-2-propanol] | 0.284 | 0.103 |  |  |
| CC(O)(c1ccc(N2CCN(S(=O)(=O)c3ccc(N)s3)CC2)cc1)C(F)(F)F (racemic) [Example 90, 2-(4-(4-((5-amino-2-thiophenyl)sulfonyl)-1-piperazinyl)phenyl)-1,1,1-trifluoro-2-propanol] | 0.448 | 0.836 |  |  |
| Nc1ccc(S(=O)(=O)N2CCN(c3ccc(C(O)(C(F)(F)F)C(F)(F)F)cc3)CC2)s1 [Example 88, 2-(4-(4-((5-amino-2-thiophenyl)sulfonyl)-1-piperazinyl)phenyl)-1,1,1,3,3,3-hexafluoro-2-propanol] | 0.302 | 0.15 |  |  |
| O=S(=O)(c1cccs1)N1CCN(c2ccc(C(O)(C(F)(F)F)C(F)(F)F)cc2C#CCCO)CC1 [Example 150, 4-(2-(4-(2-thiophenylsulfonyl)-1-piperazinyl)-5-(2,2,2-trifluoro-1-hydroxy-1-(trifluoromethyl)ethyl)phenyl)-3-butyn-1-ol] | 0.656 | 0.895 |  |  |
| CC(O)(c1ccc(N2CCN(S(=O)(=O)c3cccs3)C[C@@H]2CS(=O)(=O)c2cccc(F)c2)cc1)C(F)(F)F (mixture of isomers) [Example 189 Peak#1, 1,1,1-trifluoro-2-(4-((2R)-2-(((3-fluorophenyl)sulfonyl)methyl)-4-(2-thiophenylsulfonyl)-1-piperazinyl)phenyl)-2-propanol] | 0.374 | 0.235 |  |  |
| CC(O)(c1ccc(N2CCN(S(=O)(=O)c3cccs3)C[C@@H]2CSc2cccc(F)c2)cc1)C(F)(F)F (mixture of isomers) [Example 188, 1,1,1-trifluoro-2-(4-((2R)-2-(((3-fluorophenyl)sulfanyl)methyl)-4-(2-thiophenylsulfonyl)-1-piperazinyl)phenyl)-2-propanol] | 0.112 | 0.043 |  |  |
| CC(C)N(C[C@H]1CN(S(=O)(=O)c2ccc(N)nc2)CCN1c1ncc(C(O)(C(F)(F)F)C(F)(F)F)cn1)S(C)(=O)=O [Example 232, N-(((2R)-4-((6-amino-3-pyridinyl)sulfonyl)-1-(5-(2,2,2-trifluoro-1-hydroxy-1-(trifluoromethyl)ethyl)-2-pyrimidinyl)-2-piperazinyl)methyl)-N-(1-methylethyl)methanesulfonamide] | 0.035 | 0.063 |  |  |
| CC(C)CN(C[C@H]1CN(S(=O)(=O)c2cccs2)CCN1c1ccc(C(C)(O)C(F)(F)F)cc1)S(=O)(=O)N(C)C (mixture of isomers) [Example 215, N,N-dimethyl-N′-(2-methylpropyl)-N′-(((2R)-4-(2-thiophenylsulfonyl)-1-(4-(2,2,2-trifluoro-1-hydroxy-1-methylethyl)phenyl)-2-piperazinyl)methyl)sulfamide] | 0.07 | 0.07 |  |  |
| CC(C)C1C(=O)NCCN1C[C@H]1CN(S(=O)(=O)c2cccs2)CCN1c1ncc(C(O)(C(F)(F)F)C(F)(F)F)cn1 (mixture of isomers) [Example 185, 3-(1-methylethyl)-4-(((2S)-4-(2-thiophenylsulfonyl)-1-(5-(2,2,2-trifluoro-1-hydroxy-1-(trifluoromethyl)ethyl)-2-pyrimidinyl)-2-piperazinyl)methyl)-2-piperazinone] | 0.001 | 0.016 |  |  |
| CC(O)(c1ccc(N2CCN(S(=O)(=O)c3ccc(N)nc3)C[C@@H]2CC2CCOCC2)cc1)C(F)(F)F (mixture of isomers) [Example 127, 2-(4-((2S)-4-((6-amino-3-pyridinyl)sulfonyl)-2-(tetrahydro-2H-pyran-4-ylmethyl)-1-piperazinyl)phenyl)-1,1,1-trifluoro-2-propanol] | 0.055 | 0.058 |  |  |
| O=S(=O)(c1cccs1)N1CCN(c2ccc(C(O)(C(F)(F)F)C(F)(F)F)cc2)C(Cc2ccccc2O)C1 (racemic) [Example 178, 2-((1-(4-(1,1,1,3,3,3-hexafluoro-2-hydroxypropan-2-yl)phenyl)-4-(thiophen-2-ylsulfonyl)piperazin-2-yl)methyl)phenol] | 0.17 | 0.084 |  |  |
| O=S(=O)(c1nccs1)N1CCN(c2ncc(C(O)(C(F)(F)F)C(F)(F)F)cn2)[C@@H](CN2C3COCC2C(O)C3)C1 (stereo partly drawn) [Example 81, 8-(((2S)-4-(1,3-thiazol-2-ylsulfonyl)-1-(5-(2,2,2-trifluoro-1-hydroxy-1-(trifluoromethyl)ethyl)-2-pyrimidinyl)-2-piperazinyl)methyl)-3-oxa-8-azabicyclo[3.2.1]octan-6-ol] | 0.177 | 0.287 |  |  |
| O=S(=O)(c1cccs1)N1CCN(c2ncc(C(O)(C(F)(F)F)C(F)(F)F)cn2)[C@@H](CC2CCOCC2)C1 [Example 134, 1,1,1,3,3,3-hexafluoro-2-(2-((2S)-2-(tetrahydro-2H-pyran-4-ylmethyl)-4-(2-thiophenylsulfonyl)-1-piperazinyl)-5-pyrimidinyl)-2-propanol] | 0.122 | 0.079 |  |  |
| C[C@@H](C[C@H]1CN(S(=O)(=O)c2cccs2)CCN1c1ccc([C@](C)(O)C(F)(F)F)cc1)NC1COC1 (racemic) [Example 148, 1,1,1-trifluoro-2-(4-((2S)-2-(2-(3-oxetanylamino)propyl)-4-(2-thiophenylsulfonyl)-1-piperazinyl)phenyl)-2-propanol] |  |  | 1.12 | 0.529 |
| CC(O)(c1ccc(N2CCN(S(=O)(=O)c3cccs3)C[C@@H]2CN2C3COCC2C(O)C3)cc1)C(F)(F)F (single isomer, unassigned; peak #4) [Example 77 Peak #4] | 0.042 | 0.065 |  |  |
| Nc1ccc(S(=O)(=O)N2CCN(c3ncc(C(O)(C(F)(F)F)C(F)(F)F)cn3)[C@@H](CN3C4COCC3CC(O)C4)C2)cn1 (stereo partly drawn) [Example 99 nonan-7-ol (endo), 9-(((2S)-4-((6-amino-3-pyridinyl)sulfonyl)-1-(5-(2,2,2-trifluoro-1-hydroxy-1-(trifluoromethyl)ethyl)-2-pyrimidinyl)-2-piperazinyl)methyl)-3-oxa-9-azabicyclo[3.3.1]nonan-7-ol (endo)] | 0.003 | 0.025 |  |  |
| CC(C)N(C[C@H]1CN(S(=O)(=O)c2cccs2)CCN1c1ccc(C(C)(O)C(F)(F)F)cc1)S(C)(=O)=O (mixture of isomers) [Example 195, N-(1-methylethyl)-N-(((2R)-4-(2-thiophenylsulfonyl)-1-(4-(2,2,2-trifluoro-1-hydroxy-1-methylethyl)phenyl)-2-piperazinyl)methyl)methanesulfonamide] | 0.028 | 0.057 |  |  |
| CC(C)CN(C[C@H]1CN(S(=O)(=O)c2cccnc2N)CCN1c1ncc(C(O)(C(F)(F)F)C(F)(F)F)cn1)S(C)(=O)=O [Example 230 (2-amino-3-pyridinyl), N-(((2S)-4-((2-amino-3-pyridinyl)sulfonyl)-1-(5-(2,2,2-trifluoro-1-hydroxy-1-(trifluoromethyl)ethyl)-2-pyrimidinyl)-2-piperazinyl)methyl)-N-(2-methylpropyl)methanesulfonamide] | 0.064 | 0.095 |  |  |
| CS(=O)(=O)N(C[C@H]1CN(S(=O)(=O)c2ccc(N)nc2)CCN1c1ncc(C(O)(C(F)(F)F)C(F)(F)F)cn1)c1ccccc1 [Example 234, N-(((2R)-4-((6-amino-3-pyridinyl)sulfonyl)-1-(5-(2,2,2-trifluoro-1-hydroxy-1-(trifluoromethyl)ethyl)-2-pyrimidinyl)-2-piperazinyl)methyl)-N-phenylmethanesulfonamide] | 0.004 | 0.017 |  |  |
